Laboratory results reported in PubChem BioAssay (NCI).
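Tested at 5 concentrations; 48 h exposure; 96-well plates; endpoints linearly interpolated, else capped at highest concentration. Here, GI50 denotes the concentration required for 50% inhibition of growth. Definition used: TGI = concentration required for complete inhibition of growth.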

How the values were obtained:
Experiment in all cases: NCI tumour cell line growth inhibition, 48 h
[1] = tested on: 786-0 renal
[2] = tested on: A498 renal
[3] = tested on: A549 NSCLC
[4] = tested on: ACHN renal
[5] = tested on: BT-549 breast
[6] = tested on: CAKI-1 renal
[7] = tested on: COLO 205 colon
[8] = tested on: DU-145 prostate
[9] = tested on: EKVX NSCLC
[10] = tested on: HCC-2998 colon
[11] = tested on: HCT-116 colon
[12] = tested on: HCT-15 colon
[13] = tested on: HL-60(TB) leukemia
[14] = tested on: HOP-62 NSCLC
[15] = tested on: HOP-92 NSCLC
[16] = tested on: HS 578T breast
[17] = tested on: HT29 colon
[18] = tested on: IGROV1 ovarian
[19] = tested on: K-562 leukemia
[20] = tested on: KM12 colon
[21] = tested on: LOX IMVI melanoma
[22] = tested on: M14 melanoma
[23] = tested on: MALME-3M melanoma
[24] = tested on: MCF7 breast
[25] = tested on: MDA-MB-231 breast
[26] = tested on: MDA-MB-435
[27] = tested on: MOLT-4 leukemia
[28] = tested on: NCI-H226 lung
[29] = tested on: NCI-H23 lung
[30] = tested on: NCI-H460 lung
[31] = tested on: NCI-H522 lung
[32] = tested on: NCI/ADR-RES ovarian
[33] = tested on: OVCAR-3 ovarian
[34] = tested on: OVCAR-4 ovarian
[35] = tested on: OVCAR-5 ovarian
[36] = tested on: OVCAR-8 ovarian
[37] = tested on: RPMI-8226 leukemia
[38] = tested on: RXF 393 renal
[39] = tested on: SF-268 CNS
[40] = tested on: SF-295 CNS
[41] = tested on: SF-539 CNS
[42] = tested on: SK-MEL-2 melanoma
[43] = tested on: SK-MEL-28 melanoma
[44] = tested on: SK-MEL-5 melanoma
[45] = tested on: SK-OV-3 ovarian
[46] = tested on: SN12C renal
[47] = tested on: SNB-19 CNS
[48] = tested on: SNB-75 CNS
[49] = tested on: SR leukemia
[50] = tested on: SW-620 colon
[51] = tested on: T-47D breast
[52] = tested on: TK-10 renal
[53] = tested on: U251 CNS
[54] = tested on: UACC-257 melanoma
[55] = tested on: UO-31 renal
[56] = tested on: CCRF-CEM leukemia

Compound `CC(C)=C[C@@H]1C[C@H](C)[C@H]2CC[C@H](C)c3c(O)c(OC4OCC(O)C(O)C4O)c(C)c1c32` (stereo partly drawn) has a GI50 [1] of 17.9 µM, a TGI [1] of 34.8 µM and a GI50 [2] of 13.4 µM. The TGI [2] was 27.5 µM, the GI50 [3] was 10.3 µM and the TGI [3] was 22.7 µM. For the same compound, the GI50 [4] was 14.6 µM, the TGI [4] was 27.8 µM and the GI50 [5] was 21.6 µM. For the same compound, the TGI [5] was 39.9 µM, the GI50 [6] was 3.91 µM and the TGI [6] was 18.7 µM. For the same compound, the GI50 [7] was 15.5 µM, the TGI [7] was 29.7 µM and the GI50 [8] was 11.8 µM. It also gave a TGI [8] of 24 µM, a GI50 [9] of 18.8 µM and a TGI [9] of 33.3 µM. It also gave a GI50 [10] of 4.43 µM, a TGI [10] of 19.8 µM and a GI50 [11] of 13.9 µM. It also gave a TGI [11] of 28.4 µM, a GI50 [12] of 14 µM and a TGI [12] of 26.9 µM. It also gave a GI50 [13] of 10.9 µM, a TGI [13] of 24.5 µM and a GI50 [14] of 18.2 µM. The TGI [14] was 33.6 µM, the GI50 [15] was 12.3 µM and the TGI [15] was 24.7 µM. The GI50 [16] was 15.4 µM, the TGI [16] was 32.1 µM and the GI50 [17] was 11.7 µM. It also gave a TGI [17] of 24.7 µM, a GI50 [18] of 12 µM and a TGI [18] of 24.3 µM. The GI50 [19] was 5.73 µM, the TGI [19] was 20.5 µM and the GI50 [20] was 12.7 µM. It also gave a TGI [20] of 25.3 µM, a GI50 [21] of 15 µM and a TGI [21] of 28.2 µM. For the same compound, the GI50 [22] was 15.8 µM, the TGI [22] was 39.3 µM and the GI50 [23] was 14.1 µM. It also gave a TGI [23] of 27.6 µM, a GI50 [24] of 13.1 µM and a TGI [24] of 25.8 µM. The GI50 [25] was 13.5 µM, the TGI [25] was 26.3 µM and the GI50 [26] was 11.4 µM. For the same compound, the TGI [26] was 24.3 µM, the GI50 [27] was 5.24 µM and the TGI [27] was 19.7 µM. For the same compound, the GI50 [28] was 15.8 µM, the TGI [28] was 30.6 µM and the GI50 [29] was 12.8 µM. The TGI [29] was 25.5 µM, the GI50 [30] was 12.3 µM and the TGI [30] was 24.7 µM. It also gave a GI50 [31] of 16.4 µM, a TGI [31] of 30.2 µM and a GI50 [32] of 10.2 µM. For the same compound, the TGI [32] was 21.9 µM, the GI50 [33] was 11.9 µM and the TGI [33] was 24.3 µM. For the same compound, the GI50 [34] was 9.39 µM, the TGI [34] was 22.1 µM and the GI50 [35] was 12.6 µM. The TGI [35] was 25.2 µM, the GI50 [36] was 16.6 µM and the TGI [36] was 33 µM. The GI50 [37] was 10.8 µM, the TGI [37] was 22.9 µM and the GI50 [38] was 10.9 µM. For the same compound, the TGI [38] was 23.4 µM, the GI50 [39] was 12.4 µM and the TGI [39] was 24.9 µM. The GI50 [40] was 14.2 µM, the TGI [40] was 29.3 µM and the GI50 [41] was 18.7 µM. It also gave a TGI [41] of 34.6 µM, a GI50 [42] of 20.8 µM and a TGI [42] of 36.4 µM. For the same compound, the GI50 [43] was 14.4 µM, the TGI [43] was 27.7 µM and the GI50 [44] was 12.3 µM. It also gave a TGI [44] of 25 µM, a GI50 [45] of 18.9 µM and a TGI [45] of 33.2 µM. The GI50 [46] was 10.2 µM, the TGI [46] was 21.8 µM and the GI50 [47] was 16.2 µM. For the same compound, the TGI [47] was 29.8 µM, the GI50 [48] was 12.7 µM and the TGI [48] was 25.9 µM. For the same compound, the GI50 [49] was 6.92 µM, the TGI [49] was 20.5 µM and the GI50 [50] was 15.9 µM. It also gave a TGI [50] of 29.3 µM, a GI50 [51] of 13.3 µM and a TGI [51] of 28.1 µM. The GI50 [52] was 15.4 µM, the TGI [52] was 28.9 µM and the GI50 [53] was 16.1 µM. For the same compound, the TGI [53] was 29.6 µM, the GI50 [54] was 6.44 µM and the TGI [54] was 19.7 µM. For the same compound, the GI50 [55] was 17.8 µM and the TGI [55] was 31.6 µM.

`CS(=O)(=O)OCCn1c2c(c3c(O)cccc31)C(=O)c1ccccc1-2` was tested, and the GI50 [2] was greater than 100 µM, the TGI [2] was greater than 100 µM and the GI50 [3] was greater than 100 µM. The TGI [3] was greater than 100 µM, the GI50 [4] was 60.3 µM and the TGI [4] was greater than 100 µM. The GI50 [5] was greater than 100 µM, the TGI [5] was greater than 100 µM and the GI50 [56] was 37.1 µM. It also gave a TGI [56] greater than 100 µM, a GI50 [7] greater than 100 µM and a TGI [7] greater than 100 µM. The GI50 [8] was greater than 100 µM, the TGI [8] was greater than 100 µM and the GI50 [9] was greater than 100 µM. For the same compound, the TGI [9] was greater than 100 µM, the GI50 [10] was 36 µM and the TGI [10] was greater than 100 µM. The GI50 [11] was 44.7 µM, the TGI [11] was greater than 100 µM and the GI50 [12] was greater than 100 µM. For the same compound, the TGI [12] was greater than 100 µM, the GI50 [13] was 30.9 µM and the TGI [13] was greater than 100 µM. It also gave a GI50 [14] of 87.1 µM, a TGI [14] greater than 100 µM and a GI50 [15] of 24.7 µM. It also gave a TGI [15] greater than 100 µM, a GI50 [16] greater than 100 µM and a TGI [16] greater than 100 µM. For the same compound, the GI50 [17] was 99.8 µM, the TGI [17] was greater than 100 µM and the GI50 [18] was greater than 100 µM. For the same compound, the TGI [18] was greater than 100 µM, the GI50 [19] was greater than 100 µM and the TGI [19] was greater than 100 µM. It also gave a GI50 [20] of 80.2 µM, a TGI [20] greater than 100 µM and a GI50 [21] of 54.1 µM. For the same compound, the TGI [21] was greater than 100 µM, the GI50 [22] was greater than 100 µM and the TGI [22] was greater than 100 µM. It also gave a GI50 [23] greater than 100 µM, a TGI [23] greater than 100 µM and a GI50 [24] greater than 100 µM. The TGI [24] was greater than 100 µM, the GI50 [25] was 20.4 µM and the TGI [25] was greater than 100 µM. It also gave a GI50 [26] of 46 µM, a TGI [26] greater than 100 µM and a GI50 [27] of 36.5 µM. It also gave a TGI [27] greater than 100 µM, a GI50 [28] of 39.7 µM and a TGI [28] greater than 100 µM. It also gave a GI50 [29] greater than 100 µM, a TGI [29] greater than 100 µM and a GI50 [30] greater than 100 µM. It also gave a TGI [30] greater than 100 µM, a GI50 [31] of 95.1 µM and a TGI [31] greater than 100 µM. The GI50 [32] was greater than 100 µM, the TGI [32] was greater than 100 µM and the GI50 [33] was 66.6 µM. It also gave a TGI [33] greater than 100 µM, a GI50 [34] greater than 100 µM and a TGI [34] greater than 100 µM. It also gave a GI50 [35] greater than 100 µM, a TGI [35] greater than 100 µM and a GI50 [36] greater than 100 µM. For the same compound, the TGI [36] was greater than 100 µM, the GI50 [37] was 19.7 µM and the TGI [37] was greater than 100 µM. For the same compound, the GI50 [38] was greater than 100 µM, the TGI [38] was greater than 100 µM and the GI50 [39] was 78.5 µM. The TGI [39] was greater than 100 µM, the GI50 [40] was 84.3 µM and the TGI [40] was greater than 100 µM. It also gave a GI50 [41] greater than 100 µM, a TGI [41] greater than 100 µM and a GI50 [42] greater than 100 µM. It also gave a TGI [42] greater than 100 µM, a GI50 [43] greater than 100 µM and a TGI [43] greater than 100 µM. It also gave a GI50 [44] greater than 100 µM, a TGI [44] greater than 100 µM and a GI50 [45] of 29 µM. It also gave a TGI [45] greater than 100 µM, a GI50 [46] of 33.7 µM and a TGI [46] greater than 100 µM. For the same compound, the GI50 [47] was 40.7 µM, the TGI [47] was greater than 100 µM and the GI50 [48] was greater than 100 µM. It also gave a TGI [48] greater than 100 µM, a GI50 [49] of 10.3 µM and a TGI [49] greater than 100 µM. It also gave a GI50 [50] greater than 100 µM, a TGI [50] greater than 100 µM and a GI50 [51] of 64.7 µM. For the same compound, the TGI [51] was greater than 100 µM, the GI50 [52] was greater than 100 µM and the TGI [52] was greater than 100 µM. It also gave a GI50 [53] of 77.3 µM, a TGI [53] greater than 100 µM and a GI50 [54] greater than 100 µM. It also gave a TGI [54] greater than 100 µM, a GI50 [55] greater than 100 µM and a TGI [55] greater than 100 µM.
